Experimental data from patent US10959433B2, “Use of cationic steroidal antimicrobials for sporicidal activity” (BRIGHAM YOUNG UNIVERSITY, priority 2017, dated 2021).

Assays:
[1] = test system: membrane of vegetative and spore form of B. subtilis; experiment: Affinity of FITC-labeled CSA-13 to cell membranes (fluorimetric); type: binding, Bacillus subtilis; conditions: FITC-labeled CSA-13, 20 μg/mL
Description: To assess the affinity/binding of CSA-13 for the outer bacterial membrane, CSA-13 was labeled with fluorescein isothiocyanate (FITC) and added to the suspensions of vegetative cell and spores, to a final concentration of 20 μg/mL. […] To evaluate whether affinity of CSA-13 is influenced by the surface electrical properties of cells, zeta potentials of vegetative bacteria and spore suspensions were assessed using Zetasizer Nano ZS (Malvern Instruments, United Kingdom). Bacterial and spore cultures were brought to OD600˜0.1 in PBS buffer (pH=7). To evaluate the effect of the ceragenin on zeta potential value, CSA-13 was added at the concentration of 100 μg/mL to the spore suspension, incubated for 15 minutes and transferred to a cuvette. Measurements were conducted at 25° C.

B. subtilis spores [2] = experiment: Spore germination by optical density (OD600); type: cell-based, Bacillus subtilis; conditions: 10 to 100 μg/mL, 1 h at RT in PBS, then LB broth, OD600 for 60 min (FIG. 5, panel A)
Description: To further assess germination processes in antibiotic-treated samples, a spectrophotometric method was employed. Isolated spores were incubated at RT for 1 h in PBS with concentrations of CSA-13 ranging from 10 to 100 μg/mL. Then 100 μL of LB broth was added, and optical densities at 600 nm (OD600) were monitored, using a microplate reader (Synergy H1, BioTek, VT, USA), for 60 min. FIG. 5 includes graphs showing inhibitory effect of CSA-13 on B. subtilis spore germination assessed by the measurement of optical density for spore suspension with increasing concentrations of the antibiotic (10 μg/mL—white squares; 20 μg/mL—white diamonds; 50 μg/mL—black triangles; 100 μg/mL—black diamonds), when compared with control (CT—grey circles) (panel A). Release of rhodamine 6G from external layers of B. subtilis spores after treatment with 20 μg/ml of CSA-13 (black square) and vancomycin (VAN; grey square) (panel B).

B. subtilis spores [3] = experiment: Confocal Raman spectroscopy of single spores (CaDPA content); type: cell-based, Bacillus subtilis; conditions: 50 μg/mL and 200 μg/mL
Description: For Raman spectroscopy analyses, spores of B. subtilis were suspended in 100 μL of distilled water and treated with CSA-13 (50 μg/mL and 200 μg/mL) for 1 hour at RT and 70° C. Samples were transferred to polished calcium fluoride (CaF2) optical windows (Crystran, United Kingdom) and dried at 60° C. Raman spectra were recorded using a Renishaw InVia Raman spectrometer equipped with an optical confocal microscope, an air-cooled laser emitting at 532 nm, and an CCD detector thermoelectrically cooled to −70° C. A dry Leica N PLAN EPI (100×, NA 0.85) objective was used. The power of the laser at the sample position was ca. 1.5 mW. A sum of 20 scans with integration time of 20 seconds and a resolution of 0.5 cm^−1 was collected. The spectrometer was calibrated using the Raman scattering line generated by an internal silicon plate. A laser spot (diameter of ca. 760 nm) was focused on a single spore and then the measurement was performed. All spectra were smoothed and baseline corrected. Results from one representative experiment are provided.
FIGS. 7 and 8 show Raman spectra collected from B. subtilis spores incubated at RT and at 70° C., respectively, with corresponding confocal microscopy images. Panels A1 and A2—control sample, panels B1 and B2—50 μg/mL of CSA-13, panels C1 and C2—200 μg/mL of CSA-13. Asterisks denote CaDPA bands well separated from bands of spore biocomponents. […]

B. subtilis spores [4] = experiment: Viability (CFU) assay of bacterial spores; type: cell-based, Bacillus subtilis ATCC 6051
Description: (§1) This example studied the ability of a CSA compound (e.g., CSA-13) to kill sporulated bacterial, namely Bacillus subtilis ATCC 6051 spores. To prepare Bacillus subtilis ATCC 6051 spores, bacteria were grown on LB (Luria-Bertani) agar plates without antibiotics at 37° C. for 72 h. Bacteria were harvested, re-suspended in ice-cold phosphate buffered saline (PBS) solution and purified by triple centrifugation (12 000×g, 10 min, 4° C.). The spore suspension was heat treated (75° C., 15 min) to remove remaining vegetative cells, cooled, stored in water at 4° C. and protected from light until analysis. […] Zhang, P., P. Setlow, and Y. Li, Characterization of single heat-activated Bacillus spores using laser tweezers Raman spectroscopy. Opt Express, 2009. 17(19): p. 16480-91. All spores used in this work were free of vegetative cells (>98%), as determined by staining cells using Schaeffer and Fulton Spore Stain Kit (Sigma-Aldrich, St Louis, Mo., USA). Additionally, to confirm the formation of spores during preparation, purified samples were investigated using transmission electron microscopy (TEM, Tecnai G2 X-TWIN, FEI, USA).
(§2) A viability assay of bacterial spores in the presence of a CSA compound was performed according to the protocol presented by Ghosh and Setlow. Ghosh, S. and P. Setlow, Isolation and characterization of superdormant spores of Bacillus species. J Bacteriol, 2009. 191(6): p. 1787-97. Spore suspensions in PBS were brought to […] and incubated with various concentrations of CSA-13. To evaluate the effect of treatment time on the killing properties of the antibiotic, incubation was performed for 15, 30, 60, 120 and 240 min, respectively. To investigate the effect of temperature on sporicidal properties, incubation at room temperature (RT) and at 70° C. was performed. After incubation, the plates were transferred to ice and suspensions were diluted 10- to 1000-fold in PBS. Then, 10 μL aliquots were spotted on LB agar plates for overnight culture at 37° C. and CFUs were determined. Cell survival, after exposure to the tested agent, was expressed as percent of control.
FIG. 4 includes graphs showing decreased survival of CSA-13-treated B. subtilis spores. FIG. 4, panels A-C show decline in the survival of B. subtilis culture after incubation with various concentrations of CSA-13. FIG. 4, panels D-F show Level of metabolic activity observed in ceragenin (CSA)-treated spore samples exposed to appropriate environmental conditions when compared to untreated control. Samples were incubated at RT (panels A, D for vegetative form and panels B, E for spore form, respectively) and at 70° C. (panels C, F) for 15 (white squares), 30 (grey circles), 60 (black circles), 120 (white triangles) and 240 (grey diamonds) minutes. […]

B. subtilis spores [5] = experiment: TEM of treated spores (morphology, membrane permeability); type: cell-based, Bacillus subtilis; conditions: 50 μg/mL and 200 μg/mL, 1 hour, RT and 70° C. (FIG. 3, panels C-F)
Description: as §1
To visualize alterations in morphology and membrane permeability of treated spores, a suspension of spores (OD600˜0.5) in distilled water was treated with CSA-13 at concentrations of 50 μg/mL and 200 μg/mL and incubated for 1 hour at RT and 70° C. […]

[6] = test system: external layers of B. subtilis spores; experiment: Release of rhodamine 6G from the surface of spores; type: cell-based, Bacillus subtilis
Description: The release of rhodamine 6G absorbed on the surface of Bacillus spores was evaluated using the Maesaki method (Maesaki, S., et al., Rhodamine 6G efflux for the detection of CDR1-overexpressing azole-resistant Candida albicans strains. J Antimicrob Chemother, 1999. 44(1): p. 27-31) with minor modifications. To stain cells with rhodamine 6G, the dye was added to a final concentration of 10 μM for 10 min. Non-absorbed dye was removed by centrifugation for 2 min at 10 000×g. Next, stained cells were washed and CSA-13 at 20 μg/mL was added. After incubation for 10, 30, 60 and 120 min, supernatant was collected by centrifugation and absorption at 527 nm was measured. The total concentration of rhodamine 6G released from the surface of spores was calculated using a standard concentration curve. The level of antibiotic-induced release was presented as the difference between the concentration of rhodamine 6G released from treated spores and control samples.

[7] = test system: vegetative form of B. subtilis; experiment: Viability (CFU) assay, vegetative form; type: cell-based, Bacillus subtilis ATCC 6051; conditions: RT, incubation time 240 min
Description: as §2
FIG. 4 includes graphs showing decreased survival of CSA-13-treated B. subtilis spores. FIG. 4, panels A-C show decline in the survival of B. subtilis culture after incubation with various concentrations of CSA-13. FIG. 4, panels D-F show Level of metabolic activity observed in ceragenin (CSA)-treated spore samples exposed to appropriate environmental conditions when compared to untreated control. […]

[8] = test system: vegetative cells of B. subtilis; experiment: MTT assay of metabolic activity, vegetative cells; type: cell-based, Bacillus subtilis; conditions: RT (FIG. 4, panel D)
Description: (§3) As an additional confirmation of results, the presence of a metabolically active fraction of cells was investigated using MTT assay. After incubation of spores with various concentrations of CSA-13 in a non-growing medium (PBS), 20 μL of MTT solution (thiazolyl blue tetrazolium bromide, Sigma-Aldrich, St Louis, Mo., USA, 5 mg/mL) and 100 μL of LB medium broth were added. Incubation at 37° C. was continued for 8 h. Medium was removed, and 100 μL of dimethyl sulfoxide solution (DMSO) was added to dissolve the MTT precipitate. Cells were allowed to stand at room temperature (RT) for 10 min with shaking. Absorbance values were detected at a wavelength of 570 nm using a microplate spectrophotometer. Absorbance values obtained in control spores cultures (without a tested agent) were taken as 100%. As positive controls, 1 M HCl (for spore treatment at RT) and 70% ethanol (for spore treatment at 70° C.) were employed. The average of all the experiments was presented in comparison to the level of metabolic activity detected in non-treated B. subtilis suspension. Incubation of both vegetative cells and spores of B. subtilis was performed for 15, 30, 60, 120 and 240 min.

B. subtilis spores [9] = experiment: MTT assay of metabolic activity, spores; type: cell-based, Bacillus subtilis; conditions: LB broth 37° C. 8 h after treatment at RT or 70° C. (FIG. 4, panels E, F)
Description: as §3, with “Incubation of both vegetative cells and spores of B. subtilis was performed for 15, 30, 60, 120 and 240 min.” left out
The results of viability testing largely correlate with data obtained in the MTT assay. […] The incubation of non-treated spores in LB broth at 37° C. results in reactivation of metabolic activity confirmed by increasing formazan reduction and subsequent rise in an absorbance value. […]

## CCCCCCCCNCCC[C@@H](C)[C@H]1CC[C@H]2[C@@H]3[C@H](OCCCN)C[C@@H]4C[C@H](OCCCN)CC[C@]4(C)[C@H]3C[C@H](OCCCN)[C@]12C [CSA-13]
[1]
  affinity for the external layers of spores: high affinity
[1]; recorded 15 min (FIG. 6, panel A)
  affinity for spores versus vegetative form: greater affinity for the spores than for the vegetative form of bacteria
B. subtilis spores [2]
  effect on spore germination (OD600): strong interference in the germination
B. subtilis spores [3]; 1 hour (FIG. 8)
  percentage of CaDPA negative spores, 70° C. versus room temperature: greater compared to sample treated at room temperature
B. subtilis spores [3]; 1 hour, versus untreated
  number of CaDPA positive spores after treatment: significant reduction of the number of CaDPA positive cells
B. subtilis spores [4]; 70° C. versus room temperature
  effect of elevated temperature on sporicidal activity: elevated temperature significantly intensifies the activity
B. subtilis spores [4]; 70° C., incubation 120 and 240 minutes
  concentration killing bacterial spores: 5 µg/mL
B. subtilis spores [4]; 70° C., incubation 15 min (FIG. 4, panel C)
  concentration sufficient to inhibit the growth of spores: 20 µg/mL
B. subtilis spores [4]; RT, regardless of incubation time (15-240 min) (FIG. 4, panel B)
  concentration giving total inhibition of spore growth potential: 100 µg/mL
B. subtilis spores [5]
  change of spore structure in TEM micrographs: disruption of spore membrane architecture
[6]; 20 μg/mL of each
  rhodamine 6G release compared with vancomycin: significantly higher than that of vancomycin
[6]; 20 μg/mL, 10-120 min (FIG. 5, panel B)
  release of rhodamine 6G from spores: resulted in the release of dye
[7]
  concentration at which all vegetative cells were killed: 15 µg/mL
[8]
  concentration at which vegetative cells showed no detectable metabolism: 20 µg/mL
B. subtilis spores [9]
  metabolic activity of treated spores after exposure to favorable conditions: only a small fraction of spores was able to resume proper metabolic activity
